In this test the test system is promyelocytic leukemia strain HL-60. Kind of test: Test for induction of cell differentiation in HL-60 cells (NBT reducing ability), compound alone or with coexistence of VD3. Particulars: compound alone. The format is cell-based. The protocol: Cell differentiation-inducing action was examined for each of the compounds obtained in the examples alone or with the coexistence of 1×10^−8 M1α,25-dihydroxyvitamin D3 (VD3). According to the method described in Japanese Patent Unexamined Publication (Kokai) No. 61–76440, cell differentiation of promyelocytic leukemia strain HL-60 into granulocytic series was determined based on morphological change and measurement of ability to reduce nitroblue tetrazolium (NBT). The values in the table indicate ratios (%) of differentiated cells calculated from the NBT reducing ability, and the row represented by “VD3” indicates the results obtained by using vitamin D3.

The values that follow come from patent publication US7084133B2, “Dicarba-closo-dodecaborane derivatives” (priority 2001, dated 2006).

Consider `C=C1/C(=C\C=C2/CCC[C@]3(C)[C@@H]([C@H](C)CCCC(C)(C)O)CC[C@@H]23)C[C@@H](O)C[C@@H]1O` [VD3, 1α,25-dihydroxyvitamin D3], for which the “ratios (%) of differentiated cells calculated from the NBT reducing ability” value (Log Concentration (M) −7) is listed as 75%, the “ratios (%) of differentiated cells calculated from the NBT reducing ability” value (Log Concentration (M) −8) is listed as 41% and the “ratios (%) of differentiated cells calculated from the NBT reducing ability” value (Log Concentration (M) −9) was 7%.
